Assay results reported in ChEMBL document CHEMBL1152129, “Quantitative structure-activity relationship and complex network approach to monoamine oxidase A and B inhibitors” (J Med Chem, 2008).

Columns and labels:
[1] = biological target: T1, Amine oxidase [flavin-containing] B (Homo sapiens, UniProt P27338)
T1 sequence (P27338 whole entry): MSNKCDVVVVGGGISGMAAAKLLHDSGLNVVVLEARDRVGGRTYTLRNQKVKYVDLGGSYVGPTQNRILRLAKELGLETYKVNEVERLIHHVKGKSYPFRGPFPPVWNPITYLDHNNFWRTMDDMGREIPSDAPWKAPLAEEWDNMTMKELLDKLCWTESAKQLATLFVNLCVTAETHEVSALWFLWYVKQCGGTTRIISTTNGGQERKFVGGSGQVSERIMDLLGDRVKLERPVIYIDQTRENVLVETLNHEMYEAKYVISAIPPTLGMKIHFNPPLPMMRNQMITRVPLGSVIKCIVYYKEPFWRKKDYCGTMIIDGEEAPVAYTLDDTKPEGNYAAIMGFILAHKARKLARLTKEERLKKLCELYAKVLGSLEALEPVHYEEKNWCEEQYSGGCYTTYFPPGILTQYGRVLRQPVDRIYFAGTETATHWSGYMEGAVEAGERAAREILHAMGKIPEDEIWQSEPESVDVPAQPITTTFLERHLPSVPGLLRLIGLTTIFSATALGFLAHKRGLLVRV
Description: Inhibition of human recombinant MAOB by fluorimetric method

[2] = biological target: T2, Amine oxidase [flavin-containing] A (Homo sapiens, UniProt P21397); assay: Inhibition of human recombinant MAOA at 100 uM by fluorimetric method
T2 sequence (P21397 whole entry): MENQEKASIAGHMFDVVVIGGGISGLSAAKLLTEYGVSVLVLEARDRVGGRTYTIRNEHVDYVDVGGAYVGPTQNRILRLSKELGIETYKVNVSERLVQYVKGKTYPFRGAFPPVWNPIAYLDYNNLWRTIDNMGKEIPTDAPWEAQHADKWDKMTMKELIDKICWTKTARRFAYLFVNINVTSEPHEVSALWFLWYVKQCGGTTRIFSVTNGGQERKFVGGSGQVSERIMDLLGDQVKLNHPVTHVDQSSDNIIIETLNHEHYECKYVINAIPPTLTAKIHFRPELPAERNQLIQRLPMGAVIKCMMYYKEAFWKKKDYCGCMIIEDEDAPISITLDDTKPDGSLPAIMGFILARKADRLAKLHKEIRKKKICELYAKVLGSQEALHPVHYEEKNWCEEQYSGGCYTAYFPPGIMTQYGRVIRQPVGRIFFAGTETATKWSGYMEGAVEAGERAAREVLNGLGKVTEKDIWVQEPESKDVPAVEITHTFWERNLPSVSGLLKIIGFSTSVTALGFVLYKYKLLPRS

[3] = organism: Homo sapiens; assay: Selectivity ratio of IC50 for human recombinant MAOA to IC50 for human recombinant MAOB
[4] = biological target: T1, Amine oxidase [flavin-containing] B; assay: Inhibition of human recombinant MAOB at 100 uM by fluorimetric method
[5] = biological target: T1, Amine oxidase [flavin-containing] B; assay: Inhibition of human recombinant MAOB at 50 uM by fluorimetric method
[6] = biological target: T2, Amine oxidase [flavin-containing] A; assay: Inhibition of human recombinant MAOA by fluorimetric method

Row | Compound | IC50 [1] [µM] | Activity [2] | Ratio IC50 [3] | Activity [4] | Activity [5] | IC50 [6] [µM]
1 | COc1cc(OCC(C)=O)cc2oc(=O)ccc12 | 44.1 | Not Active | > 2.27 |  |  | 
2 | Cc1cc(=O)oc2c(C)c3oc4c(c3cc12)CCCC4 |  | Not Active |  | Not Active |  | 
3 | Cc1cc(=O)oc2c(C)c(O)ccc12 | 71.3 | Not Active |  |  |  | 
4 | COc1c(O)ccc2cc(N)c(=O)oc12 |  | Not Active |  | Not Active |  | 
5 | COc1cc(O)cc2oc(=O)ccc12 |  | Not Active |  | Not Active |  | 
6 | COc1c(O)ccc2c3c(c(=O)oc12)CCCC3 | 50.2 | Not Active | > 1.99 |  |  | 
7 | Cc1c(O)ccc2c3c(c(=O)oc12)CCC3 |  | Not Active |  | Not Active |  | 
8 | COc1cc(OC2CCCCC2=O)cc2oc(=O)ccc12 (centres undefined) |  |  | < 0.41 |  | Not Active | 20.4
9 | COc1c(OC2CCCCC2=O)ccc2c(C)cc(=O)oc12 (centres undefined) |  |  | < 0.31 |  | Not Active | 15.4
10 | Cc1cc(=O)oc2cc(O)ccc12 [HYMECROMONE] | 80.4 | Not Active |  |  |  | 
